Measured values from US20030235634A1, “Extraction of non-polar isothiocyanates from plants and dietary supplements containing same” (ACCESS BUSINESS GROUP INTERNATIONAL LLC., priority 2002, published 2003).
Where two headings read alike, the source gives them in different places.

Columns and labels:
[1] = Solubility in water
Method: Garden cress powder, prepared by drying at 45° C. and containing about […] BITC, and watercress powder, prepared by drying at 50° C. and containing about […] PEITC, were mixed in equal parts. From the mixture, 500 mg were added to a 50 mL conical vial to which 10 mL of water was added and the mixture homogenized for 2 minutes. The mixture was extracted twice with 10 mL safflower oil using homogenization at level 6 (Omni 5000 Mixer) for one minute and centrifuged for 3 minutes at 8,000×g. The oil fractions were collected, pooled and the volume brought up to 25 mL.

[2] = Dissolution of purchased BITC and PEITC in safflower oil (how much can be stored in the oil); type: physicochemical; conditions: composition in safflower oil (78.91 % volume oil)
Excerpt: BITC and PEITC were purchased from Aldrich (Sigma-Aldrich, Milwaukee, Wis.) and dissolved in safflower oil to determine how much of the non-polar isothiocyanates could be stored in the oil.

Row | SMILES | solubility in water ([1]; water, no test described) | % Volume [2] [% Volume] | ppm (mg/L) [2] | solubility in water [1]
1 | S=C=NCc1ccccc1 [BITC, Benzyl isothiocyanate] | not soluble in water | 11.50 | 129,430 ppm (mg/L) | 
2 | S=C=NCCc1ccccc1 [PEITC, phenethyl isothiocyanate] |  | 9.59 | 104,540 ppm (mg/L) | not soluble in water
